# Source: ChEMBL document CHEMBL1201862, “PubChem BioAssay data set” (2004)
# Active and inactive are the calls of the source.
# Experiments:
# [1] = luciferase reporter signal suppression in cells – H4 neuroglioma cells, luminescence, dose response (AID 1990); assay type: functional, cell-based
# BJ [2] = experiment: BJ-TERT fibroblast viability loss – cell-based, RAS-independent, luminescence, dose response (AID 1933); assay type: functional; details: Homo sapiens
# [3] = Luminescence Cell-Based Dose Response HTS to Identify Inhibitors of 5'UTR Stem-Loop Driven Prion Protein mRNA Translation in H4 Neuroglioblastoma Cells. [Related pubchem assays: 1827 (Project Summary), 1813 (Primary HTS)]; assay type: functional
# [4] = alpha-synuclein stem-loop luciferase translation blockers – H4 neuroglioma cells, luminescence, confirmation (AID 1988); assay type: functional, cell-based
# BJ [5] = experiment: cells; assay type: functional, cell-based; details: Homo sapiens
# BJ [6] = experiment: BJ-TERT-LT-ST fibroblast viability loss – cell-based, RAS-independent, luminescence, dose response (AID 1935); assay type: functional; details: Homo sapiens;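 further: BJ fibroblasts immortalized with TERT plus LT and ST oncogenes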
# [7] = DRD fibroblast viability loss – cell-based, non-viral oncogenic, luminescence, dose response (AID 1934); assay type: functional; details: Homo sapiens
# [8] = HEK-293T viability loss after treatment – luminescence, T-cell screen hits, cytotoxicity control for TCR NF-kB inhibitor project, dose response (AID 489026); assay type: functional, cell-based;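 further: cells exposed to compound about 14 hours before the viability readout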
# BJ [9] = experiment: growth inhibition of engineered Ras-driven BJ cells – cell-based, alamar blue fluorescence, cherrypicked samples, dose response (AID 2631); assay type: functional; details: Homo sapiens;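 further: confirmatory dose-response assay in RAS-dependent BJ fibroblasts engineered with TERT, LT and ST, with cytotoxicity read by fluorescence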
# [10] = blockers of HIV-1 envelope-mediated cell-cell fusion – cherry-pick, dose response (AID 652057); assay type: functional, cell-based
# [11] = blockers of HIV-1 ZM109 envelope-driven cell-cell fusion – HeLa effector, CEM target cells, luciferase, cherry-pick, dose response (AID 652058); assay type: functional, cell-based;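 further: luciferase signal from HIV-1 Env mediated cell-cell fusion of effector and target cells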
# [12] = off-target signal loss in HeLa-CEM21 co-culture – HeLa F-luc CTL cells, cherry-picked, counter-screen for HIV-1 Env fusion inhibitor project, dose response (AID 652040); assay type: functional, cell-based;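 further: potency for signal decrease marking cytotoxic or nonspecific inhibition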
# [13] = HIV-1 AD8 envelope cell-cell fusion blockers – cherry-pick, dose response (AID 652062); assay type: functional, cell-based;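 further: luciferase signal from cell-cell fusion driven by HIV-1 clade B AD8 Env; potency is for inhibitors of fusion seen as a drop in luminescence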
# HEK293 [14] = experiment: cells; details: Homo sapiens
# HEK293 [15] = experiment: cells; details: Homo sapiens; remark: listed apart in the source
# [16] = molecular target: Induced myeloid leukemia cell differentiation protein Mcl-1 (Homo sapiens, UniProt Q07820); assay type: functional
# Cytochrome P450 2C19 = Cytochrome P450 2C19 (Homo sapiens, UniProt P33261); experiment: Cytochrome panel assay with activity outcomes. Panel member name: p450-cyp2c19 Compounds with AC50 equal or less than 10 uM are considered active; assay type: functional; details: read-out: AC50
# Cytochrome P450 1A2 = molecular target: T1, Cytochrome P450 1A2 (Homo sapiens, UniProt P05177);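 further: PubChem cytochrome P450 panel assay, CYP1A2 panel member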
# T1 sequence (P05177 whole entry): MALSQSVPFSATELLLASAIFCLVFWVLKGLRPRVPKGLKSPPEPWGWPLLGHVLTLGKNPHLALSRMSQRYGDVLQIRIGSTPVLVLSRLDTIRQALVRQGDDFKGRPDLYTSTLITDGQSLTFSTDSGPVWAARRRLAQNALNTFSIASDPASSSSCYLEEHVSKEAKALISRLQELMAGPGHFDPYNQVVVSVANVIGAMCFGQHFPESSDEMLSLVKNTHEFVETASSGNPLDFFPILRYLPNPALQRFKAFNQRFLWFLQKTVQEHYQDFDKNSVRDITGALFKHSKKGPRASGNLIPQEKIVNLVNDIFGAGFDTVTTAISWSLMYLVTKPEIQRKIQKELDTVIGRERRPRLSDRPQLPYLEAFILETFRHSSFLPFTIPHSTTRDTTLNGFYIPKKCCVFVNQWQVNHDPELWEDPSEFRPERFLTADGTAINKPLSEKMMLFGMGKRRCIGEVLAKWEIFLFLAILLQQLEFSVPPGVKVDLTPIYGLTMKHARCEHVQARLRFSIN
# [17] = molecular target: T2, Aryl hydrocarbon receptor (Homo sapiens, UniProt P35869); details: Potency;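 further: confirmatory quantitative high-throughput screen measuring activation of the AhR signaling pathway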
# T2 sequence (P35869 whole entry): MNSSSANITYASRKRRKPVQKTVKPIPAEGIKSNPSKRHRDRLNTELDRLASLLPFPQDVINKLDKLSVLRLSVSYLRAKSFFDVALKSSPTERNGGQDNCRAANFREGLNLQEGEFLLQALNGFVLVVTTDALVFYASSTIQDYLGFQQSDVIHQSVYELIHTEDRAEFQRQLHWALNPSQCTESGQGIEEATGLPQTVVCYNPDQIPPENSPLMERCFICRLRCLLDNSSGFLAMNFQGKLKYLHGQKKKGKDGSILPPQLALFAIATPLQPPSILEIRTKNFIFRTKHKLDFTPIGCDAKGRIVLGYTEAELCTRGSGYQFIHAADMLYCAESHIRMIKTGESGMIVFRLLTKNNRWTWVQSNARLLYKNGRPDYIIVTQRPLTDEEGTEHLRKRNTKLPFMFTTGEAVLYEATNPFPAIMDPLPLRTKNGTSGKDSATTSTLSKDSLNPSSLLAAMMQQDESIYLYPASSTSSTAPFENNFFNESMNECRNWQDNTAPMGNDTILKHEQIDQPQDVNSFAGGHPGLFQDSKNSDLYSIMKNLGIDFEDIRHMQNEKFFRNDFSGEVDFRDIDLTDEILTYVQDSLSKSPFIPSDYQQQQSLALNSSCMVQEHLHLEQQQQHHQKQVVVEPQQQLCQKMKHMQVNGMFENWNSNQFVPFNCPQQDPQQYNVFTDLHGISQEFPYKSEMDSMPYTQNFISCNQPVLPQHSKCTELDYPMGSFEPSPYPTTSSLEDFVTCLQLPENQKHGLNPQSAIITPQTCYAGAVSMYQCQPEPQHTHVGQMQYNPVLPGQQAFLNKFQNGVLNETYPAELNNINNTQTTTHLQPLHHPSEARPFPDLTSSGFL
# Cytochrome P450 2D6 = Cytochrome P450 2D6 (Homo sapiens, UniProt P10635);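 further: CYP2D6 member of a cytochrome P450 panel assay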
# Cytochrome P450 2C9 = Cytochrome P450 2C9 (Homo sapiens, UniProt P11712)
# [18] = microbe, parasite or virus in culture; assay type: functional; details: Mycobacterium tuberculosis
# [19] = molecular target: Voltage-gated inwardly rectifying potassium channel KCNH2 (Homo sapiens, UniProt Q12809); details: Potency;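 further: confirmatory quantitative high-throughput screen measuring inhibition of hERG channel activity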
# Voltage-gated inwardly rectifying potassium channel KCNH2, sequence (Q12809 whole entry): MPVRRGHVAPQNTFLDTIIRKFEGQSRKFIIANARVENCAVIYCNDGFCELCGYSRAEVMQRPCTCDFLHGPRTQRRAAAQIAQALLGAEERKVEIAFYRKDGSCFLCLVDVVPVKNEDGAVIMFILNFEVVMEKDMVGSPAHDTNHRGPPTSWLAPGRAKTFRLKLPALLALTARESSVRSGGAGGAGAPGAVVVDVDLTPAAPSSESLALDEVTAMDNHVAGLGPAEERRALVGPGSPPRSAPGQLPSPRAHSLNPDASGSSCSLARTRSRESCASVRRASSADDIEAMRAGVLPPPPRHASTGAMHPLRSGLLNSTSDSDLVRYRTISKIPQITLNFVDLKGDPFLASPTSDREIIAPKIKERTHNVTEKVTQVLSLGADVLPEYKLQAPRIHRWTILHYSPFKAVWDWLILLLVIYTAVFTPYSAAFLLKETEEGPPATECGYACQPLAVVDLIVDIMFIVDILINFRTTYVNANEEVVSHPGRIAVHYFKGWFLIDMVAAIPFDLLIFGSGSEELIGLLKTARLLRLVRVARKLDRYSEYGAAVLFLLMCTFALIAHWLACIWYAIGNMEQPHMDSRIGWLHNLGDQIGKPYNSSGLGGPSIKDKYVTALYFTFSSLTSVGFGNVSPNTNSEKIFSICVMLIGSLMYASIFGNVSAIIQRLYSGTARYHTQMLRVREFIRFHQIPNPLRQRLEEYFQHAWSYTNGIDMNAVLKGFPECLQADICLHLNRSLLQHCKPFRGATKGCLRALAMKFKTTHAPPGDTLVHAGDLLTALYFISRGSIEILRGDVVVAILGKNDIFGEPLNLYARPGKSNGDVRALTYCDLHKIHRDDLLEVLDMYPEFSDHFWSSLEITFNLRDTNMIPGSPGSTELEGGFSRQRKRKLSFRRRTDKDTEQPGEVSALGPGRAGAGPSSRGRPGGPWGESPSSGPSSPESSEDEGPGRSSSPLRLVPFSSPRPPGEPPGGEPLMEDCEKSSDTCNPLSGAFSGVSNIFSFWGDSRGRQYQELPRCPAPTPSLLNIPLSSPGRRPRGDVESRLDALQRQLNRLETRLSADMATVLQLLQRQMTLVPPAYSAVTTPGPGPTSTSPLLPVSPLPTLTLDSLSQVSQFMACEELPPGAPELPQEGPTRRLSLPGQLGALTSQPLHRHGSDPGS
# Cytochrome P450 2C19, sequence (P33261 whole entry): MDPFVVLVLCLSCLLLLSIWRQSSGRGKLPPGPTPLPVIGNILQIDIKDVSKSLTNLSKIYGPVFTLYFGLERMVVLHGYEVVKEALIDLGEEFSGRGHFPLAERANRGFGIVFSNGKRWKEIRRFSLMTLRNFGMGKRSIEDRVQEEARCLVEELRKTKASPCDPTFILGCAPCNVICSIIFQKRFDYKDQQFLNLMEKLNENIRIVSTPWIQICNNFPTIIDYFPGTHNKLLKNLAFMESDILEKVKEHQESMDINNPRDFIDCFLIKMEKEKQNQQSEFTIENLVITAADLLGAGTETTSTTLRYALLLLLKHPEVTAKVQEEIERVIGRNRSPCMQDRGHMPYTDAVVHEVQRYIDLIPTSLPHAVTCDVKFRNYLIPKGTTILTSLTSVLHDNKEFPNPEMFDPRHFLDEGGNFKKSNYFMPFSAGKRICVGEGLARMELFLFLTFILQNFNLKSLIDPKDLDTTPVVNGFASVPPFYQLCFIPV
# Induced myeloid leukemia cell differentiation protein Mcl-1, sequence (Q07820 whole entry): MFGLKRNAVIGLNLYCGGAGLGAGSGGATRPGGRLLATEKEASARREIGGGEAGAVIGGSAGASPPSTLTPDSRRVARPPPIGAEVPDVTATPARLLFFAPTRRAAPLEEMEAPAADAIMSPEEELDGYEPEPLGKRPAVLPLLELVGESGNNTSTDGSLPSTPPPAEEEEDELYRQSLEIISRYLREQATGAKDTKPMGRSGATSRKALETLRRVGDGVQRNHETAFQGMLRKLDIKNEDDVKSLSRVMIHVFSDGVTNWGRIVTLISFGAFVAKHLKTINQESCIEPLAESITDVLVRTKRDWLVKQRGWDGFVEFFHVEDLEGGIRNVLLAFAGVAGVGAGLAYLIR
# Cytochrome P450 2D6, sequence (P10635 whole entry): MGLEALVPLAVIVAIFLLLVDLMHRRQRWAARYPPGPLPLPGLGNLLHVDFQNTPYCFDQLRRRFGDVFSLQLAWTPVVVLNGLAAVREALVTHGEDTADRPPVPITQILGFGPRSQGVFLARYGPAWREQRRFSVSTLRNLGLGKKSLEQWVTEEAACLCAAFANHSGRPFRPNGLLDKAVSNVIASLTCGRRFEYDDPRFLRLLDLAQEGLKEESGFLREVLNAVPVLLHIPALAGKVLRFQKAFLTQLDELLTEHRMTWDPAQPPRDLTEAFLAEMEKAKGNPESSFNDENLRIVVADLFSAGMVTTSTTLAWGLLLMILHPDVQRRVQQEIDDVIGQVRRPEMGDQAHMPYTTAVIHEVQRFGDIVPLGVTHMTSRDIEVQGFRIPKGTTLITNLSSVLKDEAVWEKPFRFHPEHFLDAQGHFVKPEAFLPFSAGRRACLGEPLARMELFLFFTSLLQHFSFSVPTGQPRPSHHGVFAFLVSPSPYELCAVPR
# Cytochrome P450 2C9, sequence (P11712 whole entry): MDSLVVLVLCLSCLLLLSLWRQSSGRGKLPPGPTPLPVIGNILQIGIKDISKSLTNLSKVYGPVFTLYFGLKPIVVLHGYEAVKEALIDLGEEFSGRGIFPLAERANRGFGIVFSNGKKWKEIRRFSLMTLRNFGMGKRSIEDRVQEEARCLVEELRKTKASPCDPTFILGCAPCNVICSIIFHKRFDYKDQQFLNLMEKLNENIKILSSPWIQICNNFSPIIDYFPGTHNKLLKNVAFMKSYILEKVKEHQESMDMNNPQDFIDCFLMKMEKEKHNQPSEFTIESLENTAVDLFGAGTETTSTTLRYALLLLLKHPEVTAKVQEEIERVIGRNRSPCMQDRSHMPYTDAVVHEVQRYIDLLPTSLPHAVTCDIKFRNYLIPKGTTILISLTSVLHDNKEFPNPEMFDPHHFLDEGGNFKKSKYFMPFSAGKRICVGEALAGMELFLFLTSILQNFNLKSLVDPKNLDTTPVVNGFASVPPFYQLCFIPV
smiles,measurement,setting,value
CC1=CC(C)(C)N(S(=O)(=O)c2ccc(C)cc2)c2cc(C)ccc21,EC50,[1],4.98 µM (inconclusive)
same,EC50,BJ [2],1.34 µM (active)
same,EC50,[3],9.84 µM (active)
same,EC50,[4],4.44 µM (inconclusive)
same,EC50,BJ [5],2.65 µM (active)
same,EC50,BJ [6],1.3 µM (inconclusive)
same,EC50,[7],1.95 µM (active)
same,IC50,[8],> 80 µM (inactive)
same,EC50,BJ [9],0.353 µM (active)
C[C@@]12C(=O)N(CCc3c[nH]c4ccccc34)CC(=O)N1[C@H]1c3ccccc3OC[C@@H]1[C@@H]2c1ccccc1,AC50,[10],2.67 µM (active)
same,AC50,[11],2.7 µM (active)
same,AC50,[12],3.73 µM (active)
same,AC50,[13],4.46 µM (active)
same,EC50,HEK293 [14],> 59.7 µM (inactive)
same,EC50,HEK293 [15],> 59.7 µM (inactive)
COc1ccc2[nH]c([S+]([O-])Cc3ncc(C)c(OC)c3C)nc2c1 (stereo not drawn) [OMEPRAZOLE],IC50,[16],3.14 µM (active)
same,AC50,Cytochrome P450 2C19,2.51 µM (active)
same,AC50,Cytochrome P450 1A2,31.6 µM (inconclusive)
same,AC50,[17],20 µM (inconclusive)
same,AC50,Cytochrome P450 2D6,inactive
same,AC50,Cytochrome P450 2C9,inactive
CCCCCC(O)c1cccc(OCc2ccc3ccccc3n2)c1 (stereo not drawn) [REV-5901],CC50,[18],> 40 µM (active)
same,AC50,[19],35.5 µM (inconclusive)
